Data reported in patent US11787785B2 (NOVARTIS AG, priority 2021, dated 2023).

Molecular target: T1, WIZ protein (HiBit-WIZ fusion protein) (Homo sapiens, UniProt O95785+Q96SW2)
T1 construct: expressed in transfected cells
Assay: Quantification of WIZ protein levels in HiBit tag fusion protein assay (WIZ HiBit assay in 293T cells)
Type: cell-based
Settings: for Dmax at 25 µM / remaining activity at 25 µM: HEK-293T, 293T cells; for Dmax at 25 µM: 100 − Amax, read-out: % degradation of WIZ (100 − Amax); for remaining activity at 25 µM: DMSO-normalized, curve-fitted percentage of WIZ-HiBit remaining at 25 uM, read-out: WIZ Amax; for DC50: WIZ HiBit assay in 293T cells, 10-point, 5-fold dose response, highest concentration 25 μM, about 18 hours, read-out: WIZ AC50
Description: The HiBit system from Promega was used to develop high-throughput and quantitative assays to measure changes in WIZ protein levels in response to compounds. The HiBit tag was derived from a split Nanoluciferase and has the following protein sequence: […] (SEQ ID NO: 1). The complementary fragment of Nanoluciferase (known as LgBit, from Promega), was added to the HiBit tag to form an active Nanoluciferase enzyme whose activity can be precisely measured. In this way, the levels of a fusion protein with the HiBit tag can be quantified in cell lysates.
Lentiviral vectors, based on the Invitrogen™ pLenti6.2/V5 DEST backbone were constructed that places the HiBit tag upstream of WIZ and expressed the fusion protein from an HSVTK promotor.
To ensure moderate and consistent expression of the HiBit-WIZ fusion protein across all cells in the population, stable cell lines were constructed from cells harboring a single copy of the construct. Lentivirus packaged with the constructs were made using the ViraPower™ kit from Invitrogen™. 293T cells from ATCC (Catalog number: CRL-3216), were infected with the virus at low multiplicity of infection and selected by 5 μg/mL blasticidin in culture media for 2 weeks.
The levels of HiBit-WIZ tagged fusion proteins in compound-treated cell lines were measured as follows:
On day 1, cells were diluted to 1.0×10^6 cells/ml in normal growth medium. 20 μL of cell suspension were plated in each well of a solid white 384-well plate. Plates were incubated overnight in a 37° C. and 5% CO2 humidified tissue culture incubator.
On day 2, serial dilutions of compounds were made in 384-well plates. Compound plates were set up with DMSO in columns 1, 2, 23, 24, and 10-point compound dilution series in column 3-12 and column 13-22. 10 mM stock solution of compound were placed into column 3 or 13 and a 1:5 serial dilution was carried out until there was a 10-point dilution series per compound. 50 nL of diluted compounds were transferred into the plated cells by Echo® (Labcyte) acoustic transfer. The highest concentration of compound was 25 μM. Plates were incubated overnight (about 18 hours) in a 37° C. and 5% CO2 humidified tissue culture incubator.
On day 3, plates were removed from the incubator and allowed to equilibrate at room temperature for 60 minutes. HiBit substrate (Nano-Glo® HiBit Lytic Detection System, Promega Catalogue number: N3050) was added as described by the manufacturers protocols. Plates were incubated at room temperature for 30 minutes and luminescence was read using an EnVision® reader (PerkinElmer®). Data was analyzed and visualized using the Spotfire® software package.
WIZ Degradation Activity of Compounds (Table 1)
WIZ Amax reflects the DMSO-normalized, curve-fitted percentage of WIZ-HiBit remaining at 25 uM. It was calculated by normalizing […] controls to 100%, parametric curve fitting of the dose response data (10-point, 5-fold), followed by calculation of response at 25 uM using the fitted equation (nd=not determined).

T1 sequence (O95785 whole entry, the tested form may be a part): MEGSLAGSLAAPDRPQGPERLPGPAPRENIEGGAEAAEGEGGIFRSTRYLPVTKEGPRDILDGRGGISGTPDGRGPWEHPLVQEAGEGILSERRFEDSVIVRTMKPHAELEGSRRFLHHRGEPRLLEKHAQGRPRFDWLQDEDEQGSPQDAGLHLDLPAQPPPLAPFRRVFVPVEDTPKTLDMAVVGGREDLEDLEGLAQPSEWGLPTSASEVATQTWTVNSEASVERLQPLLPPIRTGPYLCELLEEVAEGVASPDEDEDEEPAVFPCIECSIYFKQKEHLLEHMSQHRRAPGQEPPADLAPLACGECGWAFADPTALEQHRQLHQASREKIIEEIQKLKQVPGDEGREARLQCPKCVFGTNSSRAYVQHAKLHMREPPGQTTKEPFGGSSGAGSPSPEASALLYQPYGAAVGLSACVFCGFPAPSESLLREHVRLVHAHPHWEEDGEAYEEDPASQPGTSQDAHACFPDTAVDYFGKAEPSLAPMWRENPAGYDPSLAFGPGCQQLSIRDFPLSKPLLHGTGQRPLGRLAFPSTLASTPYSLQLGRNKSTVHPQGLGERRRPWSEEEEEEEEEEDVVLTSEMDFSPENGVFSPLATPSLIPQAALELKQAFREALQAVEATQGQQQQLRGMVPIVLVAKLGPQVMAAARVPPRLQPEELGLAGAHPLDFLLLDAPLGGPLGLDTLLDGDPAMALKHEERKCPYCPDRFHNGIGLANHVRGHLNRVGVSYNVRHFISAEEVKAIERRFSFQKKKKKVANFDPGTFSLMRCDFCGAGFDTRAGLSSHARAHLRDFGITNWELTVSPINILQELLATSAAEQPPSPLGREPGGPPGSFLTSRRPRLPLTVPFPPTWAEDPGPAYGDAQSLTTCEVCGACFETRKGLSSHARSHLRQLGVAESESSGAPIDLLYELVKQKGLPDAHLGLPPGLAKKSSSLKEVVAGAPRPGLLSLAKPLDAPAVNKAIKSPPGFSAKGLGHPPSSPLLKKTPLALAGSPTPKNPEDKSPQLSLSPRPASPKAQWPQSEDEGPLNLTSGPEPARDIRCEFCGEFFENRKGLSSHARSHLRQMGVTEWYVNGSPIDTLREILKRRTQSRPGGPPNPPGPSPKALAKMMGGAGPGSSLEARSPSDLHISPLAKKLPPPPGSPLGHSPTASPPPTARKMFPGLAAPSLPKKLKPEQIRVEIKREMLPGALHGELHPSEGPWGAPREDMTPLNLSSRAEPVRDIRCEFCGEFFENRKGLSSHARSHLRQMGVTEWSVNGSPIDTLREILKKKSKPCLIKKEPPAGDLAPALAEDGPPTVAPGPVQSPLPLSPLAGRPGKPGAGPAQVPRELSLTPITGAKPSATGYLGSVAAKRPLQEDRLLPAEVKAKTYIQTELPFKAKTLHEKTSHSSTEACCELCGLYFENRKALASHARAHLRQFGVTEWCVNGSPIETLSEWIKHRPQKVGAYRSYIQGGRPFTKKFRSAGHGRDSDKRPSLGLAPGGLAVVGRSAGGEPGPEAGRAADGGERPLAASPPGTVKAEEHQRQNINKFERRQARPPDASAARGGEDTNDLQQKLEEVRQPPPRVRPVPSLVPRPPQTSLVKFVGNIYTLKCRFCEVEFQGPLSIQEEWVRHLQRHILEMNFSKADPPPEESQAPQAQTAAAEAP
T1 sequence (Q96SW2 whole entry, the tested form may be a part): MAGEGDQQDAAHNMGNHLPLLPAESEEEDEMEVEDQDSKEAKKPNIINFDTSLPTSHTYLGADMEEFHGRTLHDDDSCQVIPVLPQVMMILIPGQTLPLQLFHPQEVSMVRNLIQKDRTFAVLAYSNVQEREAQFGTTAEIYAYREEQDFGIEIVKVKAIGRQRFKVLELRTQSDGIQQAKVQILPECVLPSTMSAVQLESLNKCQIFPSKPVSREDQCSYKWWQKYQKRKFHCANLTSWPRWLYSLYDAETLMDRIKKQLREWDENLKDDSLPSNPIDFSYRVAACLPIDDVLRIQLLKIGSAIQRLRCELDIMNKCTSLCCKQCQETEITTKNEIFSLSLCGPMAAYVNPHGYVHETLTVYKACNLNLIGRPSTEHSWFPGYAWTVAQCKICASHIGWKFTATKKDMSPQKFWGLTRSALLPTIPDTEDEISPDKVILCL
T1 sequence (Q16531 whole entry partner, the tested form may be a part): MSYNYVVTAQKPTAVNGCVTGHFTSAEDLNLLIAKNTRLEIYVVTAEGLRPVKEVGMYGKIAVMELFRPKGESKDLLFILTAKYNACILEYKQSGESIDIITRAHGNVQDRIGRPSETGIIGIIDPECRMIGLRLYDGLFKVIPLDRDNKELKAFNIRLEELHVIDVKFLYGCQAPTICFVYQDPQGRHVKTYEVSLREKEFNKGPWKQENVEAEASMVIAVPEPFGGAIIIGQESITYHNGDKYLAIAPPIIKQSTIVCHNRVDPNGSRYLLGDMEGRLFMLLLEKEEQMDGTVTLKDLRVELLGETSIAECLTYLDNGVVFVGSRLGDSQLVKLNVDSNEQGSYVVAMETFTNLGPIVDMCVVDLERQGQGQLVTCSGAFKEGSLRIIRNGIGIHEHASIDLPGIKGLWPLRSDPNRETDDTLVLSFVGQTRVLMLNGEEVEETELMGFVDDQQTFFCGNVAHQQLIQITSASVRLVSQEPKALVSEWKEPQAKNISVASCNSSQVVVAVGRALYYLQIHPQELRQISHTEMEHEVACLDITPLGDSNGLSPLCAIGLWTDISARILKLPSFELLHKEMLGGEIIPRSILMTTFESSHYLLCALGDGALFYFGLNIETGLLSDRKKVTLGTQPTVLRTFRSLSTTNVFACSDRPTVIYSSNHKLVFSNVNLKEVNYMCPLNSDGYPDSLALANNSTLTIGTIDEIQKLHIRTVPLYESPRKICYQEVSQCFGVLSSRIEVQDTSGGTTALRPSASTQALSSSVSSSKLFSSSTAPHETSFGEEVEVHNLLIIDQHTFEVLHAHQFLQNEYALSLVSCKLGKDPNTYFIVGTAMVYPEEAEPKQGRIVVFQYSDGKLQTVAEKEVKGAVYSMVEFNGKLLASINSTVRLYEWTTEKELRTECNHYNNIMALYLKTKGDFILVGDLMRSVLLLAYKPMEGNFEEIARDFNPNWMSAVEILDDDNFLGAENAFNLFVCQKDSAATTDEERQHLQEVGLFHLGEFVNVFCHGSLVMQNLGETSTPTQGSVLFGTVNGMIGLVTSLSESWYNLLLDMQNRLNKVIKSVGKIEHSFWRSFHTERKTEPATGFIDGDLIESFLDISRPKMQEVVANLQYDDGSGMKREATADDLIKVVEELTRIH

Dmax at 25 µM [%] | remaining activity at 25 µM [%] | DC50 [nM] | Compound
81 | 19 | 910 | C[C@H]1C[C@H](Cc2ccn3ncc(N4CCC(=O)NC4=O)c3c2)CCN1CC1CC(F)(F)C1 [Example 152, 1-(5-(((2S,4R)-1-((3,3-difluorocyclobutyl)methyl)-2-methylpiperidin-4-yl)methyl)pyrazolo[1,5-a]pyridin-3-yl)dihydropyrimidine-2,4(1H,3H)-dione]
54 | 46 | 653 | C[C@H]1CN(Cc2ccn3ncc(N4CCC(=O)NC4=O)c3c2)CCN1CC(F)F [Example 327, (S)-1-(5-((4-(2,2-difluoroethyl)-3-methylpiperazin-1-yl)methyl)pyrazolo[1,5-a]pyridin-3-yl)dihydropyrimidine-2,4(1H,3H)-dione]
81 | 19 | 98 | C[C@@H]1C[C@H](Cc2ccn3ncc(N4CCC(=O)NC4=O)c3c2)CCN1CC1CCOCC1 [Example 75]
87 | 13 | 9 | C[C@H]1CN(Cc2ccn3ncc(N4CCC(=O)NC4=O)c3c2)CCN1CC1CCCCCC1 [Example 198, (S)-1-(5-((4-(cycloheptylmethyl)-3-methylpiperazin-1-yl)methyl)pyrazolo[1,5-a]pyridin-3-yl)dihydropyrimidine-2,4(1H,3H)-dione]
30 | 70 | 799 | CC(C)C(=O)N1CCN(Cc2ccn3ncc(N4CCC(=O)NC4=O)c3c2)C[C@@H]1C [Example 341, (S)-1-(5-((4-isobutyryl-3-methylpiperazin-1-yl)methyl)pyrazolo[1,5-a]pyridin-3-yl)dihydropyrimidine-2,4(1H,3H)-dione]
41 | 59 | 1350 | CC(C)CN1CCCN(Cc2ccn3ncc(N4CCC(=O)NC4=O)c3c2)CC1 [Example 250, 1-(5-((4-isobutyl-1,4-diazepan-1-yl)methyl)pyrazolo[1,5-a]pyridin-3-yl)dihydropyrimidine-2,4(1H,3H)-dione]
19 | 81 | 2620 | C[C@@H]1CN(Cc2ccn3ncc(N4CCC(=O)NC4=O)c3c2)CCN1Cc1cccnc1 [Example 215]
72 | 28 | 68 | Cc1cncc(CN2CCC(Cc3ccn4ncc(N5CCC(=O)NC5=O)c4c3)CC2)c1 [Example 36, 1-(5-((1-((5-methylpyridin-3-yl)methyl)piperidin-4-yl)methyl)pyrazolo[1,5-a]pyridin-3-yl)dihydropyrimidine-2,4(1H,3H)-dione]
83 | 17 | 10 | C[C@@H]1C[C@H](Cc2ccn3ncc(N4CCC(=O)NC4=O)c3c2)CCN1CC1CCC(F)(F)CC1 [Example 78]
94 | 6 | 32 | CO[C@H]1CC[C@@H](CN2CCC(Cc3ccn4ncc(N5CCC(=O)NC5=O)c4c3)CC2)CC1 [Example 65, 1-(5-((1-(((1s,4s)-4-methoxycyclohexyl)methyl)piperidin-4-yl)methyl)pyrazolo[1,5-a]pyridin-3-yl)dihydropyrimidine-2,4(1H,3H)-dione]
77 | 23 | 32 | C[C@H]1C[C@H](Cc2ccn3ncc(N4CCC(=O)NC4=O)c3c2)CCN1CC(F)F [Example 274, 1-(5-(((2S,4R)-1-(2,2-difluoroethyl)-2-methylpiperidin-4-yl)methyl)pyrazolo[1,5-a]pyridin-3-yl)dihydropyrimidine-2,4(1H,3H)-dione]
38 | 62 | 1400 | O=C1CCN(c2cnn3ccc(CN4CCN(Cc5ccncc5)CC4)cc23)C(=O)N1 [Example 176]
73 | 27 | 150 | C[C@H]1CC(F)(Cc2ccn3ncc(N4CCC(=O)NC4=O)c3c2)CCN1C1COC1 (single isomer, unassigned) [Example 310]
67 | 33 | 199 | CC(C)(C1CCOCC1)N1CCN(Cc2ccn3ncc(N4CCC(=O)NC4=O)c3c2)CC1 [Example 182, 1-(5-((4-(2-(tetrahydro-2H-pyran-4-yl)propan-2-yl)piperazin-1-yl)methyl)pyrazolo[1,5-a]pyridin-3-yl)dihydropyrimidine-2,4(1H,3H)-dione]
43 | 57 | > 25000 | CC(C)COC(=O)N1CCC(Cc2ccn3ncc(N4CCC(=O)NC4=O)c3c2)CC1 [Example 95]
49 | 51 | 22000 | C[C@H]1CN(Cc2ccn3ncc(N4CCC(=O)NC4=O)c3c2)CCN1C1CC2(COC2)C1 [Example 332]
76 | 24 | 48 | O=C1CCN(c2cnn3ccc(CN4CCN(CCc5ccccc5)CC4)cc23)C(=O)N1 [Example 178]
90 | 10 | 20 | O=C1CCN(c2cnn3ccc(CC4CCN(CC5CCOCC5)CC4)cc23)C(=O)N1 [Example 3, 1-(5-((1-((tetrahydro-2H-pyran-4-yl)methyl)piperidin-4-yl)methyl)pyrazolo[1,5-a]pyridin-3-yl)dihydropyrimidine-2,4(1H,3H)-dione]
78 | 22 | 67 | C[C@H]1CN(Cc2ccn3ncc(N4CCC(=O)NC4=O)c3c2)CCN1CC1CC1 [Example 321, (S)-1-(5-((4-(cyclopropylmethyl)-3-methylpiperazin-1-yl)methyl)pyrazolo[1,5-a]pyridin-3-yl)dihydropyrimidine-2,4(1H,3H)-dione]
90 | 10 | 8 | C[C@H]1CN(Cc2ccn3ncc(N4CCC(=O)NC4=O)c3c2)CCN1CC1CCC(C)(C)CC1 [Example 200, (S)-1-(5-((4-((4,4-dimethylcyclohexyl)methyl)-3-methylpiperazin-1-yl)methyl)pyrazolo[1,5-a]pyridin-3-yl)dihydropyrimidine-2,4(1H,3H)-dione]
54 | 46 | 267 | O=C1CCN(c2cnn3ccc(CC4CCN(Cc5cscn5)CC4)cc23)C(=O)N1 [Example 115]
56 | 44 | 127 | O=C1CCN(c2cnn3ccc(CN4CCN(Cc5ccc(F)cc5)CC4)cc23)C(=O)N1 [Example 168]
65 | 35 | 65 | CC(C)CN1CCC(Cc2ccn3ncc(N4CCC(=O)NC4=O)c3c2)CC1(C)C (stereo not drawn) [Example 79, 1-(5-((1-isobutyl-2,2-dimethylpiperidin-4-yl)methyl)pyrazolo[1,5-a]pyridin-3-yl)dihydropyrimidine-2,4(1H,3H)-dione]
79 | 20 | 31 | C[C@H]1C[C@H](Cc2ccn3ncc(N4CCC(=O)NC4=O)c3c2)CCN1S(=O)(=O)C1CC1 [Example 286]
90 | 10 | 192 | C[C@H]1C[C@H](Cc2ccn3ncc(-n4cc(Cl)c(=O)[nH]c4=O)c3c2)CCN1CC1CCC(F)(F)CC1 [Example 352, 5-chloro-1-(5-(((2S,4R)-1-((4,4-difluorocyclohexyl)methyl)-2-methylpiperidin-4-yl)methyl)pyrazolo[1,5-a]pyridin-3-yl)pyrimidine-2,4(1H,3H)-dione]

Compound | Dmax at 25 µM [%] | remaining activity at 25 µM [%] | DC50 [nM]
O=C1CCN(c2cnn3ccc(CN4C[C@H]5CC[C@@H](C4)N5Cc4cccnc4)cc23)C(=O)N1 [Example 253, 1-(5-(((1R,5S)-8-(pyridin-3-ylmethyl)-3,8-diazabicyclo[3.2.1]octan-3-yl)methyl)pyrazolo[1,5-a]pyridin-3-yl)dihydropyrimidine-2,4(1H,3H)-dione] | 23 | 77 | 531
